Data published in patent US20250288589A1, “PYRIDOPYRIMIDINES AND METHODS OF THEIR USE” (Kineta, Inc., priority 2021, published 2025).
Counter-ions that a name gives are not always drawn.

Biological target: T1, full-length human PIKFYVE (Homo sapiens, UniProt Q9Y2I7, L932S/Q1183K/Q995L/S1033A/S696N/T998S)
T1 construct: A full-length human PIKFYVE [1-2098(end) amino acids and S696N, L932S, Q995L, T998S, S1033A and Q1183K; purchased Carna Biosciences; host or cells: baculovirus expression system
Test: PIKfyve biochemical assay (ADP-Glo Kinase assay, Carna Biosciences)
Conditions: GST-PIKFYVE, 10 μM to 3 nM in duplicate, read-out: hPIKfyve IC50
Text: (§1) PIKfyve Biochemical Assay. The biochemical PIKFyve inhibition assays were run by Carna Biosciences according to proprietary methodology based on the Promega ADP-Glo™ Kinase assay. A full-length human PIKFYVE [1-2098(end) amino acids and S696N, L932S, Q995L, T998S, S1033A and Q1183K of the protein having the sequence set forth in NCBI Reference Sequence No. NP_055855.2] was expressed as N-terminal GST-fusion protein (265 kDa) using baculovirus expression system. GST-PIKFYVE was purified by using glutathione sepharose chromatography and used in an ADP-Glo™ Kinase assay (Promega). Reactions were set up by adding the test compound solution, substrate solution, ATP solution and kinase solution, each at 4× final concentrations. Reactions were prepared with assay buffer (50 mM MOPS, 1 mM DTT, pH7.2), mixed, and incubated in black 384 well polystyrene plates for 1 hour at room temperature. ADP-Glo™ reagent was then added for 40 minutes, followed by kinase detection reagent for an additional 40 minutes. The kinase activity was evaluated by detecting relative light units on a luminescence plate reader. Samples were run in duplicate from 10 μM to 3 nM. […] IC50 values were calculated from concentration vs % inhibition curves by fitting to a four-parameter logistic curve.
as §1, with “The” for “PIKfyve Biochemical Assay. The”, “accession number” for “the protein having the sequence set forth in NCBI Reference Sequence No.”, “uM” for “μM”

T1 sequence (Q9Y2I7 whole entry S696N/L932S/Q995L/T998S/S1033A/Q1183K): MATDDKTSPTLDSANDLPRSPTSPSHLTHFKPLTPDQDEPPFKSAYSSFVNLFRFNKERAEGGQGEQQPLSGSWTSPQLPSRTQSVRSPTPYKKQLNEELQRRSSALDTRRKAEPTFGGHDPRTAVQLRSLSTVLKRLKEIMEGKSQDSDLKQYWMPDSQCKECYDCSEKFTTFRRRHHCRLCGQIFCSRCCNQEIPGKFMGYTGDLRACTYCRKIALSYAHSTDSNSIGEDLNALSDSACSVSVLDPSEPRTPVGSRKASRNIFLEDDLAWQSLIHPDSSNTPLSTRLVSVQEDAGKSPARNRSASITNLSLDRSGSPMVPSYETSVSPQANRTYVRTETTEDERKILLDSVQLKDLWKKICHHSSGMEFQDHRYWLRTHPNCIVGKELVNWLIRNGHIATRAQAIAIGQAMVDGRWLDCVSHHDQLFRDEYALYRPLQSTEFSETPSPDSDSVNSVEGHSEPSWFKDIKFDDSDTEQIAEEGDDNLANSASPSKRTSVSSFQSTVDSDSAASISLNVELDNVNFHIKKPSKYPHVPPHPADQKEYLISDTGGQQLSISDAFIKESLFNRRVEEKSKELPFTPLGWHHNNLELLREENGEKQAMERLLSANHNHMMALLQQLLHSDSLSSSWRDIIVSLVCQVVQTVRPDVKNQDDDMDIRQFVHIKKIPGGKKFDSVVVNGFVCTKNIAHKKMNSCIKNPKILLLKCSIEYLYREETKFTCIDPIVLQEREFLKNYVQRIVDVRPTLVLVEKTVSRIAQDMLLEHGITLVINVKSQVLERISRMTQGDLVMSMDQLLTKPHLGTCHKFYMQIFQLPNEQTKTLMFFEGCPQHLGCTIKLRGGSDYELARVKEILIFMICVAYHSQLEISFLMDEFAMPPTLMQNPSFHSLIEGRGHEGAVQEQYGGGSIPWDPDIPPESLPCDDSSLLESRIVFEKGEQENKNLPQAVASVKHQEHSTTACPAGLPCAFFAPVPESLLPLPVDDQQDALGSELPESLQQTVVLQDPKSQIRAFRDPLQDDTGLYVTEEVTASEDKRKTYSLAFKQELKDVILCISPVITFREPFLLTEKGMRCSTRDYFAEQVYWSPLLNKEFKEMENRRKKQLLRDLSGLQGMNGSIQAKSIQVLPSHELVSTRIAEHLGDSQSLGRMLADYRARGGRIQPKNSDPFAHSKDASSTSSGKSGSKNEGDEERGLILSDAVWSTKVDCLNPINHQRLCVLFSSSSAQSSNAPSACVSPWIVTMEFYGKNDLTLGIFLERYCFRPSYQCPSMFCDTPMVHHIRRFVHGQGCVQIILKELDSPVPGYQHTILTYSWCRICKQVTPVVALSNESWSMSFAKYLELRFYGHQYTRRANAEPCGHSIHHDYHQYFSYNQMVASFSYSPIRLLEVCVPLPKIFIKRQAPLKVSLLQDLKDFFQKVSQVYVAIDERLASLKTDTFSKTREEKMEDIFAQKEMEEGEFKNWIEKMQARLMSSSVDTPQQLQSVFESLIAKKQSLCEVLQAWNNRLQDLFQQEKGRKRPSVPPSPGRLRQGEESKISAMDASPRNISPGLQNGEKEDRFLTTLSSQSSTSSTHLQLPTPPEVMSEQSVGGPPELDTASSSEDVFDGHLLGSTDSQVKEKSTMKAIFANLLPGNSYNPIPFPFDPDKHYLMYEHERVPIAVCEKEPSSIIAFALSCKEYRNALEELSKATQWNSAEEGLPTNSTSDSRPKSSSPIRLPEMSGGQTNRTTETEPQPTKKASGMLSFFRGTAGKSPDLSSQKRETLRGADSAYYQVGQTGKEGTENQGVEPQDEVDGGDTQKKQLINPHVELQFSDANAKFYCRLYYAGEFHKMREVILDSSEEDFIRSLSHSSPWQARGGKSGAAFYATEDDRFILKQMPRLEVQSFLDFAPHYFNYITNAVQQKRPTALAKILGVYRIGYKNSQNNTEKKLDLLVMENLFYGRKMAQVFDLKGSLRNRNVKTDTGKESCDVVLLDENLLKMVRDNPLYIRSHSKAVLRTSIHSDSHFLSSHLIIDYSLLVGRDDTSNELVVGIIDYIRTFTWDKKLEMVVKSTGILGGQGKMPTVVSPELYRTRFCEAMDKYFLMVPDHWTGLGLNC

Row | IC50 | SMILES
1 | 1000 to 10000 nM | c1cncc(-c2ccn(-c3nc(N4CCOCC4)c4ncc(-c5ccc6c(c5)OCCO6)cc4n3)n2)c1 [Compound 49, 4-(7-(2,3-dihydrobenzo[b][1,4]dioxin-6-yl)-2-(3-(pyridin-3-yl)-1H-pyrazol-1-yl)pyrido[3,2-d]pyrimidin-4-yl)morpholine]
2 | > 10000 nM | c1ncc(-c2ccn(-c3nc(N4CCOCC4)c4ncc(C5CCOCC5)cc4n3)n2)cn1 [Compound 50, 4-[2-(3-pyrimidin-5-ylpyrazol-1-yl)-7-tetrahydropyran-4-yl-pyrido[3,2-d]pyrimidin-4-yl]morpholine]
3 | 1000 to 10000 nM | c1cc(-c2ccn(-c3nc(N4CCOCC4)c4ncc(C5CCOCC5)cc4n3)n2)ccn1 [Compound 51, 4-[2-[3-(4-pyridyl)pyrazol-1-yl]-7-tetrahydropyran-4-yl-pyrido[3,2-d]pyrimidin-4-yl]morpholine]
4 | 1000 to 10000 nM | c1cncc(-c2ccn(-c3nc(N4CCOCC4)c4ncc(C5CCOCC5)cc4n3)n2)c1 [Compound 52, 4-[2-[3-(3-pyridyl)pyrazol-1-yl]-7-tetrahydropyran-4-yl-pyrido[3,2-d]pyrimidin-4-yl]morpholine]
5 | > 10000 nM | c1cc(-c2ccn(-c3nc(N4CCOCC4)c4ncc(C5CCOCC5)cc4n3)n2)ncn1 [Compound 53, 4-[2-(3-pyrimidin-4-ylpyrazol-1-yl)-7-tetrahydropyran-4-yl-pyrido[3,2-d]pyrimidin-4-yl]morpholine]
6 | < 10 nM | COc1cnc2c(N3CCOCC3)nc(-n3ccc(-c4cccc(C)c4)n3)nc2c1 [Compound 54, 4-(7-methoxy-2-(3-m-tolyl-1H-pyrazol-1-yl)pyrido[3,2-d]pyrimidin-4-yl)morpholine]
7 | 10 to 100 nM | c1ccc(-c2ccn(-c3nc(N4CCOCC4)c4ncc(C5CC5)cc4n3)n2)cc1 [Compound 55, 4-[7-cyclopropyl-2-(3-phenylpyrazol-1-yl)pyrido[3,2-d]pyrimidin-4-yl]morpholine]
8 | 10 to 100 nM | CN1CCN(c2cnc3c(N4CCOCC4)nc(-n4cc(-c5ccccc5)cn4)nc3c2)C(=O)C1 [Compound 56, 4-methyl-1-(4-morpholino-2-(4-phenyl-1H-pyrazol-1-yl)pyrido[3,2-d]pyrimidin-7-yl)piperazin-2-one]
9 | 1000 to 10000 nM | CC(C)(C)OC(=O)N1CCC(Cc2ccn(-c3nc(N4CCOCC4)c4ncccc4n3)n2)C1 (stereo not shown) [Compound 63, tert-butyl 3-[[1-(4-morpholinopyrido[3,2-d]pyrimidin-2-yl)pyrazol-3-yl]methyl]pyrrolidine-1-carboxylate]
10 | 1000 to 10000 nM | c1cnc2c(N3CCOCC3)nc(-n3ccc(CC4CCNC4)n3)nc2c1 (stereo not shown) [Compound 64, 4-[2-[3-(pyrrolidin-3-ylmethyl)pyrazol-1-yl]pyrido[3,2-d]pyrimidin-4-yl]morpholine]
11 | 1000 to 10000 nM | COc1cncc(-c2cnc3c(N4CCOCC4)nc(-c4ccn(CC(F)(F)F)n4)nc3c2)c1 [Compound 65, 4-(7-(5-methoxypyridin-3-yl)-2-(1-(2,2,2-trifluoroethyl)-1H-pyrazol-3-yl)pyrido[3,2-d]pyrimidin-4-yl)morpholine]
12 | 1000 to 10000 nM | FC(F)(F)Cn1ccc(-c2nc(N3CCOCC3)c3ncccc3n2)n1 [Compound 68, 4-(2-(1-(2,2,2-trifluoroethyl)-1H-pyrazol-3-yl)pyrido[3,2-d]pyrimidin-4-yl)morpholine]
13 | 1000 to 10000 nM | c1cnc2c(N3CCOCC3)nc(-c3n[nH]c4ccccc34)nc2c1 [Compound 69, 4-[2-(1H-indazol-3-yl)pyrido[3,2-d]pyrimidin-4-yl]morpholine]
14 | < 10 nM | Cc1cccc(-c2cc(O)n(-c3nc(N4CCOCC4)c4ncc(-c5ccoc5)cc4n3)n2)c1 [Compound 70, 1-(7-(furan-3-yl)-4-morpholinopyrido[3,2-d]pyrimidin-2-yl)-3-m-tolyl-1H-pyrazol-5-ol]
15 | 100 to 1000 nM | c1ccc(-c2cn(-c3nc(N4CCOCC4)c4ncccc4n3)nn2)cc1 [Compound 74, 4-(2-(4-phenyl-1H-1,2,3-triazol-1-yl)pyrido[3,2-d]pyrimidin-4-yl)morpholine]
16 | 10 to 100 nM | c1ccc(-c2cnn(-c3nc(N4CCOCC4)c4ncccc4n3)n2)cc1 [Compound 75, 4-(2-(4-phenyl-2H-1,2,3-triazol-2-yl)pyrido[3,2-d]pyrimidin-4-yl)morpholine hydrochloride]
17 | 100 to 1000 nM | Cc1ccc2c(c1)nnn2-c1nc(N2CCOCC2)c2ncccc2n1 [Compound 76, 4-(2-(5-methyl-1H-benzo[d][1,2,3]triazol-1-yl)pyrido[3,2-d]pyrimidin-4-yl)morpholine]

Row | IC50 | SMILES
18 | > 10000 nM | O=C1N(c2nc(N3CCOCC3)c3ncccc3n2)CCN1C1CCCC1 [Compound 78, 1-cyclopentyl-3-(4-morpholinopyrido[3,2-d]pyrimidin-2-yl)imidazolidin-2-one]
19 | 100 to 1000 nM | O=c1[nH]c(-c2ccccc2)nn1-c1nc(N2CCOCC2)c2ncccc2n1 [Compound 82, 2-(4-morpholinopyrido[3,2-d]pyrimidin-2-yl)-5-phenyl-4H-1,2,4-triazol-3-one]
20 | > 10000 nM | c1cnc2c(N3CCOCC3)nc(-c3ccnc(C4CCNCC4)n3)nc2c1 [Compound 84, 4-[2-[2-(4-piperidyl)pyrimidin-4-yl]pyrido[3,2-d]pyrimidin-4-yl]morpholine]
21 | > 10000 nM | CN1CCC(c2nccc(-c3nc(N4CCOCC4)c4ncccc4n3)n2)CC1 [Compound 85, 4-[2-[2-(1-methyl-4-piperidyl)pyrimidin-4-yl]pyrido[3,2-d]pyrimidin-4-yl]morpholine]
22 | 10 to 100 nM | c1ccc(-c2nccc(-c3nc(N4CCOCC4)c4ncccc4n3)n2)cc1 [Compound 90, 4-(2-(2-phenylpyrimidin-4-yl)pyrido[3,2-d]pyrimidin-4-yl)morpholine]
23 | 1000 to 10000 nM | c1cc(-c2nc(N3CCOCC3)c3ncccc3n2)nc(C2CCNCC2)c1 [Compound 92, 4-[2-[6-(4-piperidyl)-2-pyridyl]pyrido[3,2-d]pyrimidin-4-yl]morpholine]
24 | 100 to 1000 nM | COc1cnc(-c2ccccc2)nc1-c1nc(N2CCOCC2)c2ncccc2n1 [Compound 93, 4-(2-(5-methoxy-2-phenylpyrimidin-4-yl)pyrido[3,2-d]pyrimidin-4-yl)morpholine]
25 | 10 to 100 nM | Oc1cnc(-c2ccccc2)nc1-c1nc(N2CCOCC2)c2ncccc2n1 [Compound 94, 4-(4-morpholinopyrido[3,2-d]pyrimidin-2-yl)-2-phenylpyrimidin-5-ol]
26 | 10 to 100 nM | c1ccc(-c2nccc(-c3nc(N4CCOCC4)c4ncc(N5CCOCC5)cc4n3)n2)cc1 [Compound 95, 4,4′-(2-(2-phenylpyrimidin-4-yl)pyrido[3,2-d]pyrimidine-4,7-diyl)dimorpholine]
27 | 1000 to 10000 nM | Cc1cnc(-c2ccccc2)nc1-c1nc(N2CCOCC2)c2ncccc2n1 [Compound 96, 4-(2-(5-methyl-2-phenylpyrimidin-4-yl)pyrido[3,2-d]pyrimidin-4-yl)morpholine]
28 | 100 to 1000 nM | c1ccc(-c2cncc(-c3nc(N4CCOCC4)c4ncccc4n3)n2)cc1 [Compound 97, 4-(2-(6-phenylpyrazin-2-yl)pyrido[3,2-d]pyrimidin-4-yl)morpholine]
29 | 1000 to 10000 nM | c1cnc2c(N3CCOCC3)nc(-c3ccnc(-c4ccoc4)n3)nc2c1 [Compound 98, 4-(2-(2-(furan-3-yl)pyrimidin-4-yl)pyrido[3,2-d]pyrimidin-4-yl)morpholine]
30 | 1000 to 10000 nM | c1coc(-c2nccc(-c3nc(N4CCOCC4)c4ncccc4n3)n2)c1 [Compound 99, 4-(2-(2-(furan-2-yl)pyrimidin-4-yl)pyrido[3,2-d]pyrimidin-4-yl)morpholine]
31 | 100 to 1000 nM | COc1cccc(-c2nccc(-c3nc(N4CCOCC4)c4ncccc4n3)n2)c1 [Compound 100, 4-(2-(2-(3-methoxyphenyl)pyrimidin-4-yl)pyrido[3,2-d]pyrimidin-4-yl)morpholine]
32 | 100 to 1000 nM | Oc1cccc(-c2nccc(-c3nc(N4CCOCC4)c4ncccc4n3)n2)c1 [Compound 101, 3-(4-(4-morpholinopyrido[3,2-d]pyrimidin-2-yl)pyrimidin-2-yl)phenol]
33 | 100 to 1000 nM | COc1cnc(-c2cccc(C)c2)nc1-c1nc(N2CCOCC2)c2ncccc2n1 [Compound 102, 4-(2-(5-methoxy-2-m-tolylpyrimidin-4-yl)pyrido[3,2-d]pyrimidin-4-yl)morpholine]
34 | 10 to 100 nM | Cc1cccc(-c2ncc(O)c(-c3nc(N4CCOCC4)c4ncccc4n3)n2)c1 [Compound 103, 4-(4-morpholinopyrido[3,2-d]pyrimidin-2-yl)-2-m-tolylpyrimidin-5-ol]
